Values of other authors, collected in US10092573B2, “Gastric and colonic formulations and methods for making and using them” (Salix Pharmaceuticals, Inc., priority 2010, dated 2018).
Entries after “also recorded” stand apart in the source; their conditions may differ. Where two headings read alike, the source gives them in different places.

Assays:
[1] = not given; remark: listed apart in the source

Row | association with ischemic colitis (10 mg tablet form in combination with HALFLYTELY) | association with ischemic colitis (doses of 20 mg) | share of the ingested erythritol that enters the colon ([1]; in vivo) | SMILES | ischemic colitis (widespread chronic use at a lower dosage range, often daily, for constipation or bloating) | effect on creatinine, urea or electrolytes (sodium, potassium, chloride, phosphate) output ([1]; 24 hour output, renal) | doses with no recorded significant human gastroenterological side effects ([1]; human) | carcinogenic, mutagenic or teratogenic potential ([1]; in vivo) | systemic metabolism and excretion of absorbed erythritol ([1]; in vivo) | toxicological effects in safety studies ([1]; in vivo)
1 | less frequently | on rare occasions | – | CC(=O)Oc1ccc(C(c2ccc(OC(C)=O)cc2)c2ccccn2)cc1 [Bisacodyl, 4,4′-(pyridin-2-ylmethylene) bis(4,1-phenylene) diacetate] | No ischemic colitis has been consistently observed or reported | – | – | – | – | –
2 | – | – | about 10% | OC[C@@H](O)[C@@H](O)CO [Erythritol, (2R,3S)-butane-1,2,3,4-tetraol] | – | no effect; also recorded: does not influence | up to 1000 mg/kg body weight/day | does not have any | not metabolized systemically and is excreted unchanged in urine | no toxicological effects
